Holding throughout (type): cell-based
The target in one assay is T1, COX-1 (Homo sapiens, UniProt P23219).
T1 construct: Die Messung der COX1 Hemmung erfolgte in HEL-Zellen nach der Methode von Berg et al; endogenous in cells; host or cells: HEL cells
Kind of assay: COX-1 inhibition in HEL cells (Tromboxan B2 by ELISA). The method, then:
In einer Variante wurden Testsubstanz und LPS zeitgleich eingesetzt. Die Messung der COX1 Hemmung erfolgte in HEL-Zellen nach der Methode von Berg et al., J. Pharmacol. Toxicol. Methods 37, 179-186 (1997). Dabei wurden HEL Zellen mit unterschiedlichen Konzentrationen der Testsubstanzen während 30 min inkubiert, anschliessend Arachidonsäure zugesetzt (Endkonzentration 30 µM), während 15 Min. inkubiert und das gebildete Tromboxan B2 mittels ELISA gemessen.
For orientation: In an ELISA, binding on a coated surface is turned into a signal by an enzyme label.

For another assay, the system named is NF-κB. Nature of the assay: NF-κB inhibition of test compounds, NF-κB binding to DNA by EMSA (Jurkat T cells and cell extracts). The note with it: Jurkat T cells. From the text:
Bestimmt wurde dabei die in-vivo und die in-vitro NF-κB Bindung an DNA durch Messung der elektrophoretischen Mobilitätsverschiebung.
Die in vivo Bindung wurde mit Jurkat T-Zellen durchgeführt. Die Zellen wurden während einer Stunde mit verschiedenen Konzentrationen der verschiedenen Extrakte inkubiert und anschliessend mit TNF-α während einer Stunde stimuliert. Total-Protein-Extrakte der Zellen wurden gewonnen und in einem Assay auf elektrophoretische Mobilitätsverschiebung (electrophoretic mobility shift assay, EMSA) auf NF-κB-bindende Aktivität geprüft.
Die in vitro Bindung wurde ebenfalls mit Jurkat T-Zellen geprüft. Zellextrakle von stimulierten wie unstimulierten Zellen wurden gewonnen. Gleiche Proteinmengen (10-20 µg) wurden 2 Stunden mit Konzentrationsreihen der zu testenden Verbindungen inkubiert und schliesslich auf elektrophoretische Mobilitätsverschiebung (EMSA) analysiert.
(A gel shift assay detects complexes by their altered migration in electrophoresis.)

The target in a further assay is T2, COX-2 (Homo sapiens, UniProt P35354).
T2 construct: Dazu wurden Mono Mac 6 Zellen mit unterschiedlichen Konzentrationen der Testsubstanzen während 30 min inkubiert; endogenous in cells; host or cells: Mono Mac 6 cells, LPS-stimulated
T2 sequence (P35354 18-604): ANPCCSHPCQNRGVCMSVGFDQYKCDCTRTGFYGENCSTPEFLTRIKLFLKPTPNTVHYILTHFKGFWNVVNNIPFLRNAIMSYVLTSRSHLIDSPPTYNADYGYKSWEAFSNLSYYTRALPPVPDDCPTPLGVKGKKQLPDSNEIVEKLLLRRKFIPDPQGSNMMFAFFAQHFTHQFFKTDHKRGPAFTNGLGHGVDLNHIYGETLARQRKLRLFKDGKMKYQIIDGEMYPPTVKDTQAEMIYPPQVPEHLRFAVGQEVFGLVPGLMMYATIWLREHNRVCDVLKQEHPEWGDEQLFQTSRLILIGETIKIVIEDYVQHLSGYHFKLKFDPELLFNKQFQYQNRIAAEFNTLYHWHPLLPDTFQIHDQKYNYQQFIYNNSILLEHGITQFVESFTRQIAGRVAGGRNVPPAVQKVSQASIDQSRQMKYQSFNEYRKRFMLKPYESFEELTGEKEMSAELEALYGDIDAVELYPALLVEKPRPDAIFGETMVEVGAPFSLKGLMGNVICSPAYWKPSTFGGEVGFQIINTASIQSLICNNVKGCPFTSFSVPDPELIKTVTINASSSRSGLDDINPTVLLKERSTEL
Nature of the assay: cell-based. The method, then: Zur Bestimmung der COX-2-Hemmwirkung wurde allgemein nach der Methode von Berg et al., J. Pharmacol. Toxicol.
Dazu wurden Mono Mac 6 Zellen mit unterschiedlichen Konzentrationen der Testsubstanzen während 30 min inkubiert. Anschliessend wurde Lipopolysaccharid (LPS, 100 ng/ml) zupipettiert und nochmals sechs Stunden inkubiert. Anschliessend wurde Arachidonsäure zugegeben (Endkonzentration 30 µM), während 15 Min. inkubiert und das gebildete Keto-PGF1α mittels ELISA (Enzyme Linked Immuno Sorbent Assay) bestimmt.
In einer Variante wurden Testsubstanz und LPS zeitgleich eingesetzt. Die Messung der COX1 Hemmung erfolgte in HEL-Zellen nach der Methode von Berg et al., J. Pharmacol. Toxicol. […] Dabei wurden HEL Zellen mit unterschiedlichen Konzentrationen der Testsubstanzen während 30 min inkubiert, anschliessend Arachidonsäure zugesetzt (Endkonzentration 30 µM), während 15 Min. inkubiert und das gebildete Tromboxan B2 mittels ELISA gemessen. […]

The source of these data is EP1171141B1, “MEDICAMENT FOR INHIBITING THE NF-kB TRANSCRIPTION FACTOR” (Max Zeller Söhne AG, priority 1999, dated 2000).

A word on the IC50: it is the concentration that gives 50% inhibition.

T1 sequence (P23219 24-599): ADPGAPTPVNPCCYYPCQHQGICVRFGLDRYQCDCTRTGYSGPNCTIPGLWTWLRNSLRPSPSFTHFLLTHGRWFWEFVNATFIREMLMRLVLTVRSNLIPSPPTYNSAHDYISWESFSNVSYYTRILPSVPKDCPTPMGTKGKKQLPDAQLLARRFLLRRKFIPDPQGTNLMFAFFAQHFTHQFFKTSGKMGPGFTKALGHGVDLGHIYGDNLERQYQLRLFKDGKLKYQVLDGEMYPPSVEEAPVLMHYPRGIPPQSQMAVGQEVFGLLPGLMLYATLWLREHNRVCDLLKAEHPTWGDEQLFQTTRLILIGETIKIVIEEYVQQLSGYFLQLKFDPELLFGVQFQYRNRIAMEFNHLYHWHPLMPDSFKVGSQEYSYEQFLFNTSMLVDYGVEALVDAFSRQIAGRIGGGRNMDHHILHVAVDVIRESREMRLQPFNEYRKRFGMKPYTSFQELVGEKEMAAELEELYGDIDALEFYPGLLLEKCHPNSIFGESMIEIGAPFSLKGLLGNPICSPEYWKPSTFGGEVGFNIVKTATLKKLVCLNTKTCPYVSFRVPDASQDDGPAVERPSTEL

For `O=C1c2ccccc2-n2c1nc1ccccc1c2=O` [Verbindung 1, Indolo[2,1-b]chinazolin-6,12-dion], on COX-1, the IC50 was 2000 nM. In other words, the single-digit micromolar range.
`O=C1c2ccccc2-n2c1nc1ccc(Cl)cc1c2=O` [Verbindung 5]: in the assay with NF-κB, the “NF-κB: Grenzkonzentration, bei der eben noch ein Hemmeffekt im EMSA feststellbar ist” value (shortened to “NF-κB: Grenzkonzentration”) stood at 50 µM/Liter. Also, the IC50 at COX-1 came out at 10000 nM; against COX-2, 2000 nM.
For `O=C1c2cc(Cl)ccc2-n2c1nc1ccccc1c2=O` [Verbindung 10] the same measures were 5 µM/Liter, 1000 nM and 500 nM.
For `Nc1ccc2nc3n(c(=O)c2c1)-c1ccc(F)cc1C3=O` [Verbindung 20] the same measures were 5 µM/Liter, 5000 nM and 500 nM.
The like results for `Cc1cc(C)c2nc3n(c(=O)c2c1)-c1ccc(F)cc1C3=O` [Verbindung 24] were, in that order, over 100 µM/Liter, over 50000 nM and over 50000 nM.
With `CN1CCN(c2ccc3c(=O)n4c(nc3c2)C(=O)c2cc(F)ccc2-4)CC1` [Verbindung 32], the “NF-κB: Grenzkonzentration” value in the assay with NF-κB is recorded as 10 µM/Liter. For the same molecule, the IC50 at COX-1 and against COX-2 was 1000 nM in each case.
On to `CCOC(=O)c1ccc2c(c1)C(=O)c1nc3ccccc3c(=O)n1-2` [Verbindung 37], for which the “NF-κB: Grenzkonzentration” value in the assay on NF-κB is given as over 100 µM/Liter. Further, the IC50 against COX-1 and at COX-2 was over 50000 nM each time.
As to `CC1CN(c2cc3c(cc2F)C(=O)c2nc4ccccc4c(=O)n2-3)CCN1C(=O)OC(C)(C)C` (centres unmarked) [Verbindung 42], the “NF-κB: Grenzkonzentration” value with NF-κB is over 100 µM/Liter. In addition, the IC50 against COX-1 and against COX-2 was over 50000 nM throughout.
With `CCCCCCCCS(=O)(=O)c1ccc2c(c1)C(=O)c1nc3c(OC)cccc3c(=O)n1-2` [Verbindung 69], the “NF-κB: Grenzkonzentration” value in the assay with NF-κB was over 100 µM/Liter. Further, the IC50 against COX-1 and against COX-2 was over 50000 nM each time.
For `O=C1c2cc(Cl)ccc2-n2c1nc1cc(N3CCOCC3)ccc1c2=O` [Verbindung 86], the “NF-κB: Grenzkonzentration” value in the assay on NF-κB is on record as 0,5 µM/Liter. Besides, the concentration for half-maximal inhibition (IC50) against COX-1 turned out to be 5000 nM; on COX-2 it was 10 nM. In addition, the “präferentielle Hemmung der induzierbaren COX-2” value on COX-2 (COX-2 versus COX-1, statement on Table 2) is recorded as “besonders deutliche präferentielle Hemmung der induzierbaren COX-2”.
Regarding `CN(CC(=O)O)c1ccc2c(=O)n3c(nc2c1)C(=O)c1cc(Cl)ccc1-3` [Verbindung 99], in the assay with NF-κB, the “NF-κB: Grenzkonzentration” value came out at 1 µM/Liter. The IC50 was determined as 5000 nM at COX-1 and 500 nM against COX-2.
The like results for `CN(CCO)c1ccc2c(=O)n3c(nc2c1)C(=O)c1cc(OC(F)(F)F)ccc1-3` [Verbindung 110] were, in that order, 5 µM/Liter, 2000 nM and 500 nM.
